The results in this text go back to ChEMBL document CHEMBL2331094 (Bioorg Med Chem Lett, 2013).

Holding throughout (type): cell-based
Experiment [1] has as its target T1, Lysophosphatidic acid receptor 4 (Homo sapiens, UniProt Q99677). Nature of the experiment: Intrinsic activity at human LPA4 receptor transfected in HEK293 cells after 1 hr by TGFalpha shedding assay in presence of Ki16425 relative to LPA.
Experiment [2] deals with T2, Lysophosphatidic acid receptor 5 (Homo sapiens, UniProt Q9H1C0). In words: Intrinsic activity at human LPA5 receptor transfected in HEK293 cells after 1 hr by TGFalpha shedding assay in presence of Ki16425 relative to LPA.
T2 sequence (Q9H1C0 whole entry): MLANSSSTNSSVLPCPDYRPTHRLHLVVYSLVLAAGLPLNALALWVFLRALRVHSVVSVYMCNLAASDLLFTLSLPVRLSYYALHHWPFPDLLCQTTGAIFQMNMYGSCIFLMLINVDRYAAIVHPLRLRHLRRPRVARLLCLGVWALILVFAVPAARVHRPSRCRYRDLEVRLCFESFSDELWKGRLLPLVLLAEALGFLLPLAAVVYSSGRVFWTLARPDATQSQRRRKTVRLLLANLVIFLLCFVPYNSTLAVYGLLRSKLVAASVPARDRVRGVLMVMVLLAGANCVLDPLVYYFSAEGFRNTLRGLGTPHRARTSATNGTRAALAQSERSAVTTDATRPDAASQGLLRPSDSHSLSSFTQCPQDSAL
For experiment [3], the target named is T3, Lysophosphatidic acid receptor 6 (Homo sapiens) (UniProt P43657).
T3 sequence (whole entry): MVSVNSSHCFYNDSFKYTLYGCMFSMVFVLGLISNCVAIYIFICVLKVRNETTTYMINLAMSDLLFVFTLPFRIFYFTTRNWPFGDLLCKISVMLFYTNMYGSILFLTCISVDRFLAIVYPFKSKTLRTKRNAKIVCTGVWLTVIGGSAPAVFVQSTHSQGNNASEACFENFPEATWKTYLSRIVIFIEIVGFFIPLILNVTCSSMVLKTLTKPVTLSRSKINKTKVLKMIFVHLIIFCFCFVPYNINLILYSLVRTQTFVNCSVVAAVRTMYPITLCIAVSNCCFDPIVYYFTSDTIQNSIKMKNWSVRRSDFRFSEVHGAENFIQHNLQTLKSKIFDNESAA
In words: Intrinsic activity at human LPA6 receptor transfected in HEK293 cells after 1 hr by TGFalpha shedding assay in presence of Ki16425 relative to LPA.

For experiment [4], the target named is T4, Lysophosphatidic acid receptor 3 (Homo sapiens) (UniProt Q9UBY5).
T4 sequence (whole entry): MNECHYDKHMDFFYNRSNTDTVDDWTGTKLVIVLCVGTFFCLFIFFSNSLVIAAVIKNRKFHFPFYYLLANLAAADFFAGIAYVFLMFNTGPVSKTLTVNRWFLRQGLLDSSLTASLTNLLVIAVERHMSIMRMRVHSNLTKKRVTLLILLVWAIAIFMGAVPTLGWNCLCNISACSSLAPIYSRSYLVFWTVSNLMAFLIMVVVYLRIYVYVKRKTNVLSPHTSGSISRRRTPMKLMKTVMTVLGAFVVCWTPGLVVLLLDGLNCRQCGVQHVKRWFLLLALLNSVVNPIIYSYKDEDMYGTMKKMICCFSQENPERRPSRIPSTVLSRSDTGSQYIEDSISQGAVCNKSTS
In words: Intrinsic activity at human LPA3 receptor transfected in HEK293 cells after 1 hr by TGFalpha shedding assay relative to LPA.

Experiment [5] deals with T5, Lysophosphatidic acid receptor 1 (Homo sapiens, UniProt Q92633). Nature of the experiment: Intrinsic activity at human LPA1 receptor transfected in HEK293 cells after 1 hr by TGFalpha shedding assay relative to LPA.
T5 sequence (Q92633 whole entry): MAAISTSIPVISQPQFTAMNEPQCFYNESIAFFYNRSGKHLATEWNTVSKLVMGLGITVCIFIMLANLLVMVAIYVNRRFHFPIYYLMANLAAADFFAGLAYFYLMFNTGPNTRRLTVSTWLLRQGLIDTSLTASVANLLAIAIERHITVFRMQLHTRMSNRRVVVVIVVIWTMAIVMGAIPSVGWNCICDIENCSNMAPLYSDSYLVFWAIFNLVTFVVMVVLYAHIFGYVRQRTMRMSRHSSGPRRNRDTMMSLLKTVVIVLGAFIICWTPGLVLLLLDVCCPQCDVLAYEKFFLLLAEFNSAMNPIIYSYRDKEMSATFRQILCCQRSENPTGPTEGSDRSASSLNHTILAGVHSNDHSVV
In experiment [6] the target is T6, Lysophosphatidic acid receptor 2 (Homo sapiens, UniProt Q9HBW0). In words: Intrinsic activity at human LPA2 receptor transfected in HEK293 cells after 1 hr by TGFalpha shedding assay relative to LPA.
T6 sequence (Q9HBW0 whole entry): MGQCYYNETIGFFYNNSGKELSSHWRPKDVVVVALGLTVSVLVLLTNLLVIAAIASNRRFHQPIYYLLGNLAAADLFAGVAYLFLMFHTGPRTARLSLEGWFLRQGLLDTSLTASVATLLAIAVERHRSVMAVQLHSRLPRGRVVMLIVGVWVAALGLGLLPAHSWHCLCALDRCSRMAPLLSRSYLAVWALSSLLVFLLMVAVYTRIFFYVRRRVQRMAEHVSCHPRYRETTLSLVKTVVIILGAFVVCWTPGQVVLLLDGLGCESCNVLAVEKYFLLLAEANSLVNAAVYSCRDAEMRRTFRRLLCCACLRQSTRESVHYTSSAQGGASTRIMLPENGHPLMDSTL
For experiment [7], the target named is T7, Lysophosphatidic acid receptor 6 (Homo sapiens, UniProt P43657).
T7 sequence (P43657 whole entry): T3 sequence (whole entry)
In words: Agonist activity at human LPA6 receptor transfected in HEK293 cells after 1 hr by TGFalpha shedding assay in presence of Ki16425.

In experiment [8] the target is T2, Lysophosphatidic acid receptor 5. Nature of the experiment: Agonist activity at human LPA5 receptor transfected in HEK293 cells after 1 hr by TGFalpha shedding assay in presence of Ki16425.
In experiment [9] the target is T1, Lysophosphatidic acid receptor 4. Nature of the experiment: Agonist activity at human LPA4 receptor transfected in HEK293 cells after 1 hr by TGFalpha shedding assay in presence of Ki16425.
Experiment [10] deals with T8, Lysophosphatidic acid receptor 3 (Homo sapiens, UniProt Q9UBY5).
T8 sequence (Q9UBY5 whole entry): T4 sequence (whole entry)
Nature of the experiment: Agonist activity at human LPA3 receptor transfected in HEK293 cells after 1 hr by TGFalpha shedding assay.

The target in experiment [11] is T5, Lysophosphatidic acid receptor 1. In words: Agonist activity at human LPA1 receptor transfected in HEK293 cells after 1 hr by TGFalpha shedding assay.
The target in experiment [12] is T6, Lysophosphatidic acid receptor 2. Nature of the experiment: Agonist activity at human LPA2 receptor transfected in HEK293 cells after 1 hr by TGFalpha shedding assay.

Molecules are shown by their SMILES.

T1 sequence (Q99677 whole entry): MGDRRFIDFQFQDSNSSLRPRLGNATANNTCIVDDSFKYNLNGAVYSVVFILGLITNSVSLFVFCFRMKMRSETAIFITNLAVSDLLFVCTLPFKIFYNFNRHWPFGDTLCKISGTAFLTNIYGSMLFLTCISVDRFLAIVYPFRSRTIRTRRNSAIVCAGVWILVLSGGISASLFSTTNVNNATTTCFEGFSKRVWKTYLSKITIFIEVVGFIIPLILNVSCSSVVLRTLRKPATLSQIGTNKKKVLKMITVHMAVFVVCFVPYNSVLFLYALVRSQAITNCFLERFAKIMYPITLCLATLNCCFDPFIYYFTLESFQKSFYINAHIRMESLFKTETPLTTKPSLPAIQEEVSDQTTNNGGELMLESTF

Usually EC50 stands for the concentration at which the effect is half-maximal. With `CCCCCCCCCCCCCCCCOC(COC)COP(O)(O)=S` (configuration not stated), the Intrinsic activity in experiment [1] was 2.1; in experiment [2], 300; in [3], 10.9; in [4] it was 300; in [5], 0.38; in [6] it was 0.046. For the same compound, the half-maximal effective concentration (EC50) in experiment [7] was 66 nM; in experiment [8], 0.26 nM; in experiment [9], 3.8 nM; in experiment [10], 0.36 nM; in [11], 26 nM; in [12], 116 nM.
For `CCCCCCCCCCCCCCCC(=O)OC[C@@H](O)COP(=O)(O)O`, the Intrinsic activity was 0.14 in [1]; 1.04 in experiment [2]; 0.25 in [3]; 0.102 in [4]; 0.24 in experiment [5]; 0.092 in experiment [6]. Also, the EC50 in experiment [7] worked out at 930 nM; in experiment [8], 68 nM; in [9], 84 nM; in experiment [10], 580 nM; in [11], 71 nM; in experiment [12] it was 290 nM.
Regarding `CCCCCCCCCCCCCCCCCC(=O)OCC(COP(=O)(O)S)OC` (racemic), the Intrinsic activity in experiment [1] was 2.6; in [2], 11.1; in experiment [3], 13.3; in experiment [4], 410; in experiment [5], 0.79; in experiment [6] it was 0.188. For the same compound, the EC50 amounted to 86 nM in experiment [7]; 6.3 nM in [8]; 3.3 nM in experiment [9]; 0.28 nM in experiment [10]; 16.5 nM in [11]; 161 nM in [12].
For `CCCCCCCCCCCCCCCCCCOC[C@@H](COP(O)(O)=S)OC`, the Intrinsic activity in [1] is 2.7; in experiment [2], 23; in experiment [3] it was 11; in experiment [4], 390; in experiment [5] it was 1.2; in experiment [6] it was 0.34. The EC50 in experiment [7] turned out to be 90 nM; in experiment [8], 3.4 nM; in experiment [9], 3.5 nM; in experiment [10] it was 0.37 nM; in experiment [11], 10.1 nM; in experiment [12], 110 nM.
On to `CCCCCCCCCCCCCCCCCCOC[C@H](COP(O)(O)=S)OC`, for which the Intrinsic activity in experiment [1] was determined as 2.1; in experiment [2], 16; in [3] it was 10.9; in [4], 140; in experiment [5], 0.57; in [6], 0.088. Also, the concentration giving a half-maximal response (EC50) was 105 nM in experiment [7]; 6.1 nM in [8]; 4.9 nM in [9]; 1.08 nM in [10]; 31 nM in experiment [11]; 350 nM in experiment [12].
Take `CCCCCCCCCCCCCCCCCCOCC(COP(O)(O)=S)OC` (racemic): the Intrinsic activity in experiment [1] is 2.2; in experiment [2], 114; in experiment [3], 27; in [4] it was 570; in [5] it was 1.63; in [6], 0.26. In addition, the EC50 stood at 39 nM in [7]; 0.83 nM in experiment [8]; 3.8 nM in experiment [9]; 0.23 nM in experiment [10]; 8.4 nM in experiment [11]; 100 nM in experiment [12].
For `CCCCCCCCCCCCCCCCCC(=O)OC[C@H](COP(O)(O)=S)OC`, the Intrinsic activity in experiment [1] amounted to 1.6; in experiment [2], 8.4; in experiment [3] it was 19.3; in experiment [4], 260; in [5], 0.61; in experiment [6], 0.178. Further, the EC50 in [7] amounted to 58 nM; in [8], 8.2 nM; in experiment [9] it was 4.9 nM; in [10], 0.44 nM; in experiment [11], 24 nM; in experiment [12] it was 149 nM.
In the case of `CCCCCCCC/C=C\CCCCCCCC(=O)OC[C@@H](O)COP(=O)(O)O` [LYSOPHOSPHATIDIC ACID], the Intrinsic activity in [1], in experiment [2], in [3], in [4], in experiment [5] and in experiment [6] was 1 throughout. In experiment [11], this compound returned an EC50 of 18 nM.
For `CCCCCCCCCCCCCCCCCC(=O)OC(COC)COP(O)(O)=S` (racemic), the Intrinsic activity in experiment [1] worked out at 3.9; in experiment [2], 41; in [3] it was 14.3; in experiment [4], 600; in experiment [5], 1.15; in experiment [6], 0.165. Besides, the EC50 came to 76 nM in [7]; 1.81 nM in experiment [8]; 2.4 nM in experiment [9]; 0.21 nM in experiment [10]; 12.2 nM in experiment [11]; 146 nM in [12].
With `CCCCCCCCCCCCCCCCCOC(COC)COP(O)(O)=S` (racemic), the Intrinsic activity in experiment [1] came out at 2; in experiment [2], 26; in experiment [3] it was 15.1; in experiment [4] it was 340; in [5], 1.29; in experiment [6], 0.3. Further, the EC50 came to 78 nM in [7]; 3 nM in experiment [8]; 4.5 nM in experiment [9]; 0.39 nM in [10]; 11.1 nM in experiment [11]; 117 nM in [12].
In the case of `CCCCCCCCCCCCCCCCCC(=O)OC[C@@H](COP(O)(O)=S)OC`, the Intrinsic activity in [1] is 3.1; in experiment [2], 14.8; in [3] it was 13.1; in experiment [4], 500; in experiment [5] it was 0.94; in [6] it was 0.25. Further, the EC50 was 79 nM in experiment [7]; 5.1 nM in experiment [8]; 2.7 nM in experiment [9]; 0.27 nM in experiment [10]; 14.7 nM in [11]; 112 nM in experiment [12].
